Data on seven molecules can be found in publication PMC7744527, “The structure of SeviL, a GM1b/asialo-GM1 binding R-type lectin from the mussel Mytilisepta virgata” (Scientific Reports, 2020).

Read-outs that look alike come from different tables or passages of the source.

For data set [1], the target named is T1, SeviL (Mytilisepta virgata, UniProt A0A646QV53).
T1 construct: This vector directs expression of full-length SeviL carrying a thrombin-cleavable hexa-histidine tag; hexa-histidine tag (thrombin-cleavable; leaves residual GSH before the native Met) (N, cleaved yes); made in house; host or cells: E. coli BL21(DE3)
The data set is described as follows: biochemical. In kind it is binding. On the procedure:
(§1) Experimental details are given in Methods/Isothermal Titration Calorimetry. […] ITC experiments were repeated with the monomer mutant SeviL (Q12R/F126K). […] Errors in Kd for the native protein and monomer were determined from triplicate experiments. To produce a stronger signal and lower noise, further experiments were attempted with the concentrations of the native protein and ligand increased ten-fold. […] Different stereo views of the interaction between protein and ligand are shown in SFigure 11.
(§2) Figure 5 (A) A thermogram produced by injecting 1 mM asialo-GM1 saccharide into 50 μ M SeviL. The experiment was repeated three times, each thermogram being fitted to a one-site model (shown as a black line). Dissociation constants were calculated as weighted averages, and errors were calculated as weighted standard deviations, using the reciprocal chi-square values of each individual fit as weights.
Experiments were performed using a MicroCal iTC200 (GE) instrument. The sample of SeviL (in 50 mM phosphate buffer, pH 6.8, 0.1 M NaCl) was placed in the cell, and equilibrated at 298 K. The selected ligand was dissolved in the same buffer, and injected into the protein sample (with 20 injections of 10 μ L each), allowing the baseline to stabilise between injections. The data were analysed using the manufacturer’s software, assuming a simple single site model, to yield a Kd value and chi-square value from each experiment. […] Asialo-GM1 and GM1b were used at 1 mM concentration, each experiment being repeated three times, and errors were determined as the weighted standard deviation of these three values. Higher concentrations of protein and ligand were used in the case of these longer ligands.

Data set [2] deals with T1, SeviL. The settings on record: 52 oligosaccharides; cited from earlier work.
Data set [3] addresses T2, SeviL (Q12R/F126K) (Mytilisepta virgata, UniProt A0A646QV53, F126K/Q12R).
T2 construct: This vector directs expression of full-length SeviL carrying a thrombin-cleavable hexa-histidine tag; hexa-histidine tag (thrombin-cleavable); made in house; host or cells: E. coli BL21(DE3)
The data set is described as follows: Isothermal titration calorimetry with monomer mutant SeviL (Q12R/F126K). In kind it is binding. The conditions noted are these: 1 mM ligand titrated into 50 μM SeviL (Q12R/F126K), one-site model, triplicate. As for the experimental part: as §1, §2
Experiments were performed using a MicroCal iTC200 (GE) instrument. […] The data were analysed using the manufacturer’s software, assuming a simple single site model, to yield a Kd value and chi-square value from each experiment. […] Asialo-GM1 and GM1b were used at 1 mM concentration, each experiment being repeated three times, and errors were determined as the weighted standard deviation of these three values. […]

Data set [4] concerns the molecule itself. Kind of data set: AUC; sedimentation velocity, 50,000 rpm, 293 K, 50 mM potassium phosphate pH 6.8, 0.1 M NaCl, absorbance at 280 nm, c(s)/c(M) analysis with SEDFIT; sample concentration printed as 1.0 ug/ml.
In data set [5] the test system is trypsinised and glutaraldehyde-fixed rabbit erythrocytes. Kind of data set: Hemagglutination assay. It counts as cell-based. The settings on record: 10 mM CaCl2, 0.25% Triton X-100, 1 h room temperature. As for the experimental part:
Figure 6 Hemagglutination of red blood cells by SeviL. 20 μ L of a two-fold dilution of SeviL (initially 10 mg/mL) were serially diluted and added to the same volume of a red cell suspension containing 0.25% Triton-X100 and 10 mM calcium chloride, and incubated for 1 h at room temperature. Appearance of a dot indicates no agglutination. The number over the wells indicates the protein dilution factor. Top row: dimer SeviL, middle row: dimer SeviL (D39H), and bottom row: monomer SeviL (Q12R/F126K). Column C is a negative control with no added lectin.
Hemagglutination assay was performed in 96-well U-shape plates as described previously. 20 μ L each protein (10 μ g/ml) in TBS was mixed with 20 μ L of a 1% suspension (with TBS; v/v) of trypsinised and glutaraldehyde-fixed rabbit erythrocytes in addition to 20 μ L of TBS containing 0.25% (w/v) Triton X-100 and 10 mM CaCl2. The plate was incubated at room temperature for 1 h, and the formation of a sheet (agglutination-positive) or dot (agglutination-negative) was observed and scored against the lectin titre.

The subject of data set [6] is mammalian carcinoma cells expressing asialo-GM1. Also on record: method as in PMID 31769916. The settings on record: cited from earlier work.
The test system of data set [7] is human red cells. Also on record: method as in PMID 31769916. The settings on record: in the presence of calcium; cited from earlier work.

Consider `OC[C@H]1OC(O)[C@H](O)[C@@H](O)[C@@H]1O` (stereo partly drawn) [Glucose], for which, in data set [1] (small sugar ligand), the “interaction with the protein (ITC)” value was “not seen to interact with the protein at all”. The molecule `OC[C@H]1O[C@@H](O[C@H]2[C@H](O)[C@@H](O)C(O)O[C@@H]2CO)[C@H](O)[C@@H](O)[C@H]1O` (mixture of isomers) [lactose] yielded a dissociation constant Kd in data set [1] of 8000 to 12000 µM.

With `CC(=O)NC1C(O)CC(OC2C(O)C(CO)OC(OC3C(O)C(CO)OC(OC4C(O)C(CO)OC(OC5C(CO)OC(OC6C(CO)OC(O)C(O)C6O)C(O)C5O)C4O)C3NC(C)=O)C2O)(C(=O)O)OC1C(O)C(O)CO` (stereo not drawn) [SSEA-4, Neu5Ac α (2-3)Gal β (1-3)GalNAc β (1-3)Gal α (1-4)Gal β (1-4)Glc], the “binding in glycan array” value in data set [2] is “weak binding”. On to `CC(=O)N[C@H]1[C@H](O[C@@H]2[C@H](O)[C@@H](O)[C@H](O[C@H]3[C@H](O)[C@@H](O)C(O)O[C@@H]3CO)O[C@@H]2CO)O[C@H](CO)[C@H](O)[C@@H]1O[C@@H]1O[C@H](CO)[C@H](O)[C@H](O)[C@H]1O` (stereo partly drawn) [asialo-GM1, Gal β (1-3)GalNAc β (1-4)Gal β (1-4)Glc], for which the dissociation constant Kd is 100 µM in data set [1] (1 mM ligand injected into 50 μM SeviL, 298 K, pH 6.8, one-site model, triplicate, weighted average, read-out: Kd); approximately 100 µM in data set [1] (protein and ligand concentrations increased ten-fold (1 mM SeviL/10 mM asialo-GM1; 0.8 mM SeviL/12 mM GM1b), model of non-interacting sites, read-out: Kd (exothermic and endothermic binding site, each)); 100 µM in data set [3]. In data set [2], the “binding in glycan array” value is “bind”.

B1: SeviL (natural protein, Mytilisepta virgata)
chain: MSSVTIGKCYIQNRENGGRAFYNLGRKDLGIFTGKMYDDQIWSFQKSDTPGYYTIGRESKFLQYNGEQVIMSDIEQDTTLWSLEEVPEDKGFYRLLNKVHKAYLDYNGGDLVANKHQTESEKWILFKAY
notes: some N-terminal residues remain after removal of the histidine tag by thrombin; also called recombinant SeviL; wild-type SeviL; source: recombinant, expressed in bacteria, purified (details in Supplementary Information); not shown: histidine tag, N-terminal, cleaved
Regarding B1, the “stoichiometry N” value in data set [4] is 2.

B2: SeviL: recombinant 129 residue dimeric β-trefoil R-type lectin from the mussel Mytilisepta virgata (protein)
chain: MSSVTIGKCYIQNRENGGRAFYNLGRKDLGIFTGKMYDDQIWSFQKSDTPGYYTIGRESKFLQYNGEQVIMSDIEQDTTLWSLEEVPEDKGFYRLLNKVHKAYLDYNGGDLVANKHQTESEKWILFKAY
modifications: left off: histidine tag, N-terminal, cleaved
notes: recombinant 129 residue dimeric β-trefoil R-type lectin from the mussel Mytilisepta virgata
Consider B2, for which the results for the hemagglutination entry in data set [5] and in data set [7] were “can trigger hemagglutination at low concentration” and “cause hemagglutination”, respectively. In addition, the “effect on carcinoma cells” value in data set [6] was “activates apoptotic pathways, causing cell death”.

B3: SeviL (Q12R/F126K): SeviL double mutant at the dimer interface, almost entirely monomeric, retains sugar binding (protein)
chain: MSSVTIGKCYIRNRENGGRAFYNLGRKDLGIFTGKMYDDQIWSFQKSDTPGYYTIGRESKFLQYNGEQVIMSDIEQDTTLWSLEEVPEDKGFYRLLNKVHKAYLDYNGGDLVANKHQTESEKWILKKAY
modifications: left off: histidine tag, N-terminal, cleaved
As to B3, the hemagglutination result in data set [5] was “Hemagglutination is also lost”.
